Calls of active or inactive are those of the source.
Experiments:
[1] = HEK-293T cell viability reduction – luminescence, B-cell screen hits, cytotoxicity control for BCR NF-kB inhibitor project, dose response (AID 489021); assay type: functional, cell-based;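 further: HEK-293T cells carrying an NF-kB luciferase reporter; cells exposed to compound for about 14 hours before viability readout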
[2] = biological target: T1, Neuropeptide Y receptor type 1 (Homo sapiens, UniProt P25929); assay type: functional;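 further: HEK293 cells with a CNG channel challenged with NPY then isoproterenol; potency as antagonist that reverses NPY suppression of cAMP signal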
T1 sequence (P25929 whole entry): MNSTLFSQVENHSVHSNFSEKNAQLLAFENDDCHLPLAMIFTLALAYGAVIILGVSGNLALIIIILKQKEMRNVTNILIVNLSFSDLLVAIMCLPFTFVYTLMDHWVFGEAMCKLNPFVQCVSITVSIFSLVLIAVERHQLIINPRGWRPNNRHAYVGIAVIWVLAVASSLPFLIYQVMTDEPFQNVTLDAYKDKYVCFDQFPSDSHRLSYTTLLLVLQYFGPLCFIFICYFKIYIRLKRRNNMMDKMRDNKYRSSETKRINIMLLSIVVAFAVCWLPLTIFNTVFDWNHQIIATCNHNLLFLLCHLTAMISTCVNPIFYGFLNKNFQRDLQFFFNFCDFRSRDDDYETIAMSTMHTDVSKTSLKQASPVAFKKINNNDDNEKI

[3] = test system: Streptococcus sp. 'group A'; test: Streptococcus pyogenes SK(-)GAS viability under kanamycin – luminescence, BacTiterGlo, confirmation, counter-screen for streptokinase expression inhibitor project, dose response (AID 1900); assay type: functional, organism-based
Streptokinase A = biological target: T2, Streptokinase A (Streptococcus pyogenes serotype M1, UniProt P10520); test: viability-normalized secreted streptokinase activity reduction – plasminogen activation absorbance, OD405, dose response (AID 1914); assay type: functional, Streptococcus pyogenes M1 GAS;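 further: secreted streptokinase activity via plasminogen activation per viability signal from cell pellet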
T2 sequence (P10520 whole entry): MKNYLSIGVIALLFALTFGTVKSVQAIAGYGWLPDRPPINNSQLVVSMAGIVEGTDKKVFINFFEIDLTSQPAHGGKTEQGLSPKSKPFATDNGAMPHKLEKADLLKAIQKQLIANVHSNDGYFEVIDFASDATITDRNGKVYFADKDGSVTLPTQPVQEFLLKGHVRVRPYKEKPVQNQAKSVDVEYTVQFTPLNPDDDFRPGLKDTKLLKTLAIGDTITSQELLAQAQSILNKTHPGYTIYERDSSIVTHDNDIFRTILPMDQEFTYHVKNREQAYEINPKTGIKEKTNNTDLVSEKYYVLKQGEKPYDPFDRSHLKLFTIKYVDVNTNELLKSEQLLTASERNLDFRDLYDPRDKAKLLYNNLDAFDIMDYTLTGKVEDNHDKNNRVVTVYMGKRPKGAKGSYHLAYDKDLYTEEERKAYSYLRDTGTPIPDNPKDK

[4] = microbe, parasite or virus in culture; assay type: functional; conditions: Mycobacterium tuberculosis
[5] = biological target: T3, Neuropeptide Y receptor type 2 (Homo sapiens, UniProt P49146); assay type: functional, cell-based;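 further: HEK293 cells expressing the receptor and a CNG channel; stimulus was NPY near EC95 followed by isoproterenol to raise cAMP; antagonist potency measured as restoring cAMP signal that NPY suppresses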
T3 sequence (P49146 whole entry): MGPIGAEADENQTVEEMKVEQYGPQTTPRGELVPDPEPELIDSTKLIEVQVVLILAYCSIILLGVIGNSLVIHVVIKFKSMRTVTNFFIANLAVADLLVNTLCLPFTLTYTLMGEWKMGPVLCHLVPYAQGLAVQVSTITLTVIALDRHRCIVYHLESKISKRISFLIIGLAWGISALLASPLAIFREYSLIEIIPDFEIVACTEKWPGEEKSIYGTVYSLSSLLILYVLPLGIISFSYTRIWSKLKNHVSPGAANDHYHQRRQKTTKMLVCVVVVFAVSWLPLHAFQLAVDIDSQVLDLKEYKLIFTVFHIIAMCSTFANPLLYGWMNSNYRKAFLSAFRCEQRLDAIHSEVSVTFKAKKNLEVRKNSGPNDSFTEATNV

Streptococcus = test: GAS UMAA2166 growth inhibition – luminescence, BacTiterGlo, counter-screen for streptokinase expression inhibitor project, dose response (AID 1915); assay type: functional, organism-based;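 further: potency for reduction of bacterial viability or growth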
[6] = biological target: Neurotensin receptor type 1 (Homo sapiens, UniProt P30989); assay type: functional;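 further: Image-based confirmatory dose-response assay measuring agonist activity at NTR1; NTR1-expressing U2OS osteosarcoma cells imaged for beta-arrestin GFP spot formation; agonist potency where compounds increase beta-arrestin recruitment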
Mucolipin-3 = biological target: T4, Mucolipin-3 (Homo sapiens, UniProt Q8TDD5); test: Dose response cell-based high-throughput screening assay for agonists of the transient receptor potential channel ML3 (TRPML3). [Related pubchem assays: 1526, 1424, 1448 ]; assay type: functional
T4 sequence (Q8TDD5 whole entry): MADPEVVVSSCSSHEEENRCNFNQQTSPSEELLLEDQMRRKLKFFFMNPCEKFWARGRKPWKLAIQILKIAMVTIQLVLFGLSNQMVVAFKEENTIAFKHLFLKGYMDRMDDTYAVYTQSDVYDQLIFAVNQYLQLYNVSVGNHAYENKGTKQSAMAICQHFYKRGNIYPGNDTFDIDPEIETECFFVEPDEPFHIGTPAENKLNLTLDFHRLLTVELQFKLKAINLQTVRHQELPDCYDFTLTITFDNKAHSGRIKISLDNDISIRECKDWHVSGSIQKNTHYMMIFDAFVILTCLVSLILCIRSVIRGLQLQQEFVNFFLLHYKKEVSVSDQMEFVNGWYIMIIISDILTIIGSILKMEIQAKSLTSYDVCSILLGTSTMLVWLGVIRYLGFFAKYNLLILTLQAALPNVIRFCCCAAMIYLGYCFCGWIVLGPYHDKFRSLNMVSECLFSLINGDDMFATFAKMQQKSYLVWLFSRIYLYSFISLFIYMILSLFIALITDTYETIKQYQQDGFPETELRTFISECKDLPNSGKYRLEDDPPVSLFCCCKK

Ion channel NompC = Ion channel NompC (Danio rerio, UniProt Q7T1G6); test: Fluorescence counterscreen assay for TRPML3 agonists: dose response cell-based high-throughput screening assay to identify agonists of the transient receptor potential channel N1 (TRPN1). [Related pubchem assays: 1526, 1424, 1448 ]; assay type: functional
[7] = biological target: Photoreceptor-specific nuclear receptor (Homo sapiens, UniProt Q9Y5X4); assay type: functional;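 further: potency for compounds that break the NR2E3 corepressor complex and count as activators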
[8] = biological target: Peroxisome proliferator-activated receptor gamma/Nuclear receptor corepressor 2 (Homo sapiens, UniProt P37231+Q9Y618); assay type: functional
[9] = biological target: T5, Corticotropin-releasing factor receptor 2/Corticotropin-releasing factor-binding protein (Homo sapiens, UniProt P24387+Q13324); test: Dose Response confirmation of uHTS hits for small molecule antagonists of the CRF-binding protein and CRF-R2 receptor complex.; assay type: functional; conditions: read-out: IC50_Mean
T5 sequence (Q13324 whole entry): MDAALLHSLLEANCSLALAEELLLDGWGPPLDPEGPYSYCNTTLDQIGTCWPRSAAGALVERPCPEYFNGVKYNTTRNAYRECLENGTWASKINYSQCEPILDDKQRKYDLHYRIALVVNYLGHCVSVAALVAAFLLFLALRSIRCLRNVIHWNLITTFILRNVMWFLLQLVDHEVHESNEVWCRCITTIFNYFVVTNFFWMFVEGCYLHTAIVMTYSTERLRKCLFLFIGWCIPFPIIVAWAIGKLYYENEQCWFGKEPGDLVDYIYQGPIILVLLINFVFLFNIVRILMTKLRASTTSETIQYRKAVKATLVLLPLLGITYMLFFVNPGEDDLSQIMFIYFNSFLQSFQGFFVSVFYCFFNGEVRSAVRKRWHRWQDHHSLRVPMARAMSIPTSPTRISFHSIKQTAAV
T5 sequence (P24387 whole entry): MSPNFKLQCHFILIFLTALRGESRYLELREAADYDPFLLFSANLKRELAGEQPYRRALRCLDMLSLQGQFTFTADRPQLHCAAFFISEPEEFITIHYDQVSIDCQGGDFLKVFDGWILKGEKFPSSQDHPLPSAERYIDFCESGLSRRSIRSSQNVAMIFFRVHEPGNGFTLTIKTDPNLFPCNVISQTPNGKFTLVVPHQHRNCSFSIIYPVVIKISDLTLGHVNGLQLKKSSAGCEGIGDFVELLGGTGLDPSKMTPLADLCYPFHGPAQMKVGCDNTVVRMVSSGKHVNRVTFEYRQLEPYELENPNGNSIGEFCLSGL

[10] = biological target: T5, Corticotropin-releasing factor receptor 2/Corticotropin-releasing factor-binding protein; test: activators of CRF receptor 2 with binding protein – uHTS hits, confirmation (AID 602473); assay type: functional; conditions: read-out: EC50_Mean
[11] = blockers of CRF-binding protein–CRF-R2 complex – cell-based, uHTS hits, 384-well, dose response (AID 651639); assay type: functional, Homo sapiens; conditions: read-out: IC50_Mean
[12] = biological target: T6, Neuropeptides B/W receptor type 1 (Homo sapiens, UniProt P48145); test: Fluorescence-based dose response cell-based high throughput screening assay to identify antagonists of the G-protein coupled receptor 7 (GPR7). [Related pubchem assays: 1952 (Screening assay (GPR7 antagonists).), 1880 (Summary AID.)]; assay type: functional
T6 sequence (P48145 whole entry): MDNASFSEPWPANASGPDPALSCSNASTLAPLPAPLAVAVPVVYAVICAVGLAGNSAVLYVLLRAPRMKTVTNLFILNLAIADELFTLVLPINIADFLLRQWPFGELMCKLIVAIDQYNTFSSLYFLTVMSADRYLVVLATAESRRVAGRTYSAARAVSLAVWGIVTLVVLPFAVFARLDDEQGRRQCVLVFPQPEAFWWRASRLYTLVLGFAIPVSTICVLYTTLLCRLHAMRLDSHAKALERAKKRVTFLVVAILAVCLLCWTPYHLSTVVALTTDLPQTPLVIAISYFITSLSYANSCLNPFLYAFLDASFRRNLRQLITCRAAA

[13] = biological target: Melanin-concentrating hormone receptor 1 (Homo sapiens, UniProt Q99705); test: Fluorescence-based counterscreen for antagonists of the G-protein coupled receptor 7 (GPR7): cell-based high throughput dose response assay to identify antagonists of the melanin-concentrating hormone receptor 1 (MCHR1).; assay type: functional
[14] = biological target: Luciferin 4-monooxygenase (Photinus pyralis, UniProt P08659); test: Counter Screen for Luciferase-based Assay Positives. [Related pubchem assays: 620, 618, 411 ]
HT-1080 = test: HT1080 cell viability loss – fluorescence readout (AID 620); assay type: functional, cell-based; conditions: Homo sapiens
HEK293 = test: EBV LMP1 TES2 canonical NF-kB signalling blockers – cell-based, HEK293, luciferase, cherry-pick, dose response (AID 588343); assay type: functional; conditions: Homo sapiens
[15] = biological target: T7, RNA-binding protein pos-1 (Caenorhabditis elegans, UniProt G5EF15); test: disruptors of C. elegans POS-1 RNA interaction – biochemical, fluorescence polarization, dose response (AID 1964);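 further: purified POS-1 fused to maltose binding protein made in E. coli; potency of compounds blocking POS-1 binding to fluorescent RNA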
T7 sequence (G5EF15 whole entry): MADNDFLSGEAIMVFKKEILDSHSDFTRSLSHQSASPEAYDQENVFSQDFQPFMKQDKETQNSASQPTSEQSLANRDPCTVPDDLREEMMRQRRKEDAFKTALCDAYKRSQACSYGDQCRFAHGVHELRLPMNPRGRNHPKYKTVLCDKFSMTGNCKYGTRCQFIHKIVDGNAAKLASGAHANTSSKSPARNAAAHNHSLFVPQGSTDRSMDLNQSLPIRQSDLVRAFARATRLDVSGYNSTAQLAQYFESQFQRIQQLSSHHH

[16] = biological target: T8, Zinc finger protein mex-5 (Caenorhabditis elegans, UniProt Q9XUB2); test: potency of MEX-5 RNA-binding blockers – biochemical, C. elegans, fluorescence polarization, dose response (AID 1960)
T8 sequence (Q9XUB2 whole entry): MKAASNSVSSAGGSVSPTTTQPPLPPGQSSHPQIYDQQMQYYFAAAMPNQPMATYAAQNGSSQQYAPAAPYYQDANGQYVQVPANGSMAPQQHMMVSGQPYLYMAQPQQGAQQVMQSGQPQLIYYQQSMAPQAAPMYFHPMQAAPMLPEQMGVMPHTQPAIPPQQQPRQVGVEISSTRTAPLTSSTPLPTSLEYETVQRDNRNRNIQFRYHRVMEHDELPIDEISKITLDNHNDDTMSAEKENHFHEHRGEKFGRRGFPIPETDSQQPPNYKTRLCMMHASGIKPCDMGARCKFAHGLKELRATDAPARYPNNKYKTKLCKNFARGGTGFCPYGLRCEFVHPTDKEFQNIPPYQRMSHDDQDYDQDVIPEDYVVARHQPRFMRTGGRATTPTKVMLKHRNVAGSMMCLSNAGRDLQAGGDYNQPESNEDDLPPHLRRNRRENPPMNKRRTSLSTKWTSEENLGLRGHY

[17] = biological target: NACHT, LRR and PYD domains-containing protein 3 (Homo sapiens, UniProt Q96P20); test: NALP3 inhibitors in yeast, dose response, luminescent (AID 488799); assay type: functional
Nonstructural protein 1 = Nonstructural protein 1 (Influenza A virus, UniProt Q194T2); assay type: functional, Influenza A virus (A/California/07/2009(H1N1))

Peroxisome proliferator-activated receptor gamma/Nuclear receptor corepressor 2, sequence (P37231 whole entry): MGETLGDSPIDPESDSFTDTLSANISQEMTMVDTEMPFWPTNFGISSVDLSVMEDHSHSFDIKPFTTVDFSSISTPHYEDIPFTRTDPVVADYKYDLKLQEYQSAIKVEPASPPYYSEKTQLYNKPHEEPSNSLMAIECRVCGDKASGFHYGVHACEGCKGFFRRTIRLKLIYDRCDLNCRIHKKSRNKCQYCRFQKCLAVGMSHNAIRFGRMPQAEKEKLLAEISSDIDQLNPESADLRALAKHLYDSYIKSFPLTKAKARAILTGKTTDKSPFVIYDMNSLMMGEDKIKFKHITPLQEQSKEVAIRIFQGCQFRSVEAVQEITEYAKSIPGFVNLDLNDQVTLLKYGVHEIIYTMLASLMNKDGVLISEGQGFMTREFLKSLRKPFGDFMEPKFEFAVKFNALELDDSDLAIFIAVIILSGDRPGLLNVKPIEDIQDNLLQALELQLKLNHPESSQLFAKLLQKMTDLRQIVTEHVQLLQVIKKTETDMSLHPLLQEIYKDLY
Peroxisome proliferator-activated receptor gamma/Nuclear receptor corepressor 2, sequence (Q9Y618 whole entry): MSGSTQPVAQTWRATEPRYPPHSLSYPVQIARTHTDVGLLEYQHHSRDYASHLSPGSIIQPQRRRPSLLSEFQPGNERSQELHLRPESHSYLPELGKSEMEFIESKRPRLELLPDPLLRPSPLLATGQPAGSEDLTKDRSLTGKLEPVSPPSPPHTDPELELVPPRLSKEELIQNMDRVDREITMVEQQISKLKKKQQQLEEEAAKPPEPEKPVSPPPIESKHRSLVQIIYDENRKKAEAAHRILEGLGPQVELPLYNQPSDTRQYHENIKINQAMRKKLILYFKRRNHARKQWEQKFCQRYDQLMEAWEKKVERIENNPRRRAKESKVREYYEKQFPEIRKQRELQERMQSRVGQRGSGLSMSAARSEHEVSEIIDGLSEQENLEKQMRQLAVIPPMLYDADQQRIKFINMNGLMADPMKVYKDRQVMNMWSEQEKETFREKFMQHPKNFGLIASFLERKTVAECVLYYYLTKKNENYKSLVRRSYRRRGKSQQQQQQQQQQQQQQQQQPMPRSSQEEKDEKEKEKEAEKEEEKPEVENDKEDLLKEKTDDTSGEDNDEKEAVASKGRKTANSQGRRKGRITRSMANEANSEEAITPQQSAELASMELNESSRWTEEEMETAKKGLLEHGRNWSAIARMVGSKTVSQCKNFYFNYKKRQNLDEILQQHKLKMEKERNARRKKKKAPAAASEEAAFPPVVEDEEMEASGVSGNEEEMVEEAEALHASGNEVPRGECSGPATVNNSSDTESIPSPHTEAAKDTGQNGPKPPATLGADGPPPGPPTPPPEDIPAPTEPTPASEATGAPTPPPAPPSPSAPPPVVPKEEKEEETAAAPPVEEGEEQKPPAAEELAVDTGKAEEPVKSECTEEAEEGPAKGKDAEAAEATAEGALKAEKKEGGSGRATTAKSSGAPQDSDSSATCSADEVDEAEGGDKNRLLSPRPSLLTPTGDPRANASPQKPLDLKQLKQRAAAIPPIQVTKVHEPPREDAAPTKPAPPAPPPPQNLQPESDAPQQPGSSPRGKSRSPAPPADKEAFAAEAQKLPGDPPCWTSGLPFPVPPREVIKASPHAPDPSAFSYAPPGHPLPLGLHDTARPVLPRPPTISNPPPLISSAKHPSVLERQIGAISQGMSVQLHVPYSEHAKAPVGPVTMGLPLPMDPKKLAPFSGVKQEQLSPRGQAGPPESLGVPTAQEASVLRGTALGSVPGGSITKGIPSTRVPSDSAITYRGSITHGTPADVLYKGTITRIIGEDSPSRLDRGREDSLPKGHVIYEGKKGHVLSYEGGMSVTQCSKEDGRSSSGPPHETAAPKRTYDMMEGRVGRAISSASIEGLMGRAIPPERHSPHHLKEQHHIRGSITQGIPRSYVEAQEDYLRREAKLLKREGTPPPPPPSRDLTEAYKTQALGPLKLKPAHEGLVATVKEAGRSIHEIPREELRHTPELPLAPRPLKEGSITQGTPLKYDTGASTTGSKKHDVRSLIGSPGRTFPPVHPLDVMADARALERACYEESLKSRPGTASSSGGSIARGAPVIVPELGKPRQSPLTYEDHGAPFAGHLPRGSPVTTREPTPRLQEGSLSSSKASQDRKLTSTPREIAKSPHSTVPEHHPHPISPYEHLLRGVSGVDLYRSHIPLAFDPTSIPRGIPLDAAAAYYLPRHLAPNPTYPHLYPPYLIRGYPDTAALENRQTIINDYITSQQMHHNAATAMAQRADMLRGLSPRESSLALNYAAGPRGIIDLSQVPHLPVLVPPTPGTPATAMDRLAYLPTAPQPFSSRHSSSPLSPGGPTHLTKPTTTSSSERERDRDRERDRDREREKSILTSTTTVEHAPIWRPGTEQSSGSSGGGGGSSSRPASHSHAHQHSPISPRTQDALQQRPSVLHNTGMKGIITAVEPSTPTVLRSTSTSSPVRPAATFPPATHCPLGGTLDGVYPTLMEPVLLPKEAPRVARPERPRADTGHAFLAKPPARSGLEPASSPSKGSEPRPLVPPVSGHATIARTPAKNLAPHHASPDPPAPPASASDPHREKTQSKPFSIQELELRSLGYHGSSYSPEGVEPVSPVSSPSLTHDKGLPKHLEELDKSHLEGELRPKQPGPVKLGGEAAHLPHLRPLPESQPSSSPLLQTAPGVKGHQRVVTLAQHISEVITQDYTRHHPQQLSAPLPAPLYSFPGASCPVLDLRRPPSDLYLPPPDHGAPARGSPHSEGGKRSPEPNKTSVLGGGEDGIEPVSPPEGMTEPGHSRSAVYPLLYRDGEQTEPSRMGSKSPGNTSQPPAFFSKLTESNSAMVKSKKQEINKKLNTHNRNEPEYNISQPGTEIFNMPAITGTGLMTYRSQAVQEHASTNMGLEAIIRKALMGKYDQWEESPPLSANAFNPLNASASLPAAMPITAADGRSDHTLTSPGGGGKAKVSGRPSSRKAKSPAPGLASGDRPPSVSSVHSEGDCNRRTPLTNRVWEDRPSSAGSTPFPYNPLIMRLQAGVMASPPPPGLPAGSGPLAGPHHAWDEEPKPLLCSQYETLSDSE
Ion channel NompC, sequence (Q7T1G6 whole entry): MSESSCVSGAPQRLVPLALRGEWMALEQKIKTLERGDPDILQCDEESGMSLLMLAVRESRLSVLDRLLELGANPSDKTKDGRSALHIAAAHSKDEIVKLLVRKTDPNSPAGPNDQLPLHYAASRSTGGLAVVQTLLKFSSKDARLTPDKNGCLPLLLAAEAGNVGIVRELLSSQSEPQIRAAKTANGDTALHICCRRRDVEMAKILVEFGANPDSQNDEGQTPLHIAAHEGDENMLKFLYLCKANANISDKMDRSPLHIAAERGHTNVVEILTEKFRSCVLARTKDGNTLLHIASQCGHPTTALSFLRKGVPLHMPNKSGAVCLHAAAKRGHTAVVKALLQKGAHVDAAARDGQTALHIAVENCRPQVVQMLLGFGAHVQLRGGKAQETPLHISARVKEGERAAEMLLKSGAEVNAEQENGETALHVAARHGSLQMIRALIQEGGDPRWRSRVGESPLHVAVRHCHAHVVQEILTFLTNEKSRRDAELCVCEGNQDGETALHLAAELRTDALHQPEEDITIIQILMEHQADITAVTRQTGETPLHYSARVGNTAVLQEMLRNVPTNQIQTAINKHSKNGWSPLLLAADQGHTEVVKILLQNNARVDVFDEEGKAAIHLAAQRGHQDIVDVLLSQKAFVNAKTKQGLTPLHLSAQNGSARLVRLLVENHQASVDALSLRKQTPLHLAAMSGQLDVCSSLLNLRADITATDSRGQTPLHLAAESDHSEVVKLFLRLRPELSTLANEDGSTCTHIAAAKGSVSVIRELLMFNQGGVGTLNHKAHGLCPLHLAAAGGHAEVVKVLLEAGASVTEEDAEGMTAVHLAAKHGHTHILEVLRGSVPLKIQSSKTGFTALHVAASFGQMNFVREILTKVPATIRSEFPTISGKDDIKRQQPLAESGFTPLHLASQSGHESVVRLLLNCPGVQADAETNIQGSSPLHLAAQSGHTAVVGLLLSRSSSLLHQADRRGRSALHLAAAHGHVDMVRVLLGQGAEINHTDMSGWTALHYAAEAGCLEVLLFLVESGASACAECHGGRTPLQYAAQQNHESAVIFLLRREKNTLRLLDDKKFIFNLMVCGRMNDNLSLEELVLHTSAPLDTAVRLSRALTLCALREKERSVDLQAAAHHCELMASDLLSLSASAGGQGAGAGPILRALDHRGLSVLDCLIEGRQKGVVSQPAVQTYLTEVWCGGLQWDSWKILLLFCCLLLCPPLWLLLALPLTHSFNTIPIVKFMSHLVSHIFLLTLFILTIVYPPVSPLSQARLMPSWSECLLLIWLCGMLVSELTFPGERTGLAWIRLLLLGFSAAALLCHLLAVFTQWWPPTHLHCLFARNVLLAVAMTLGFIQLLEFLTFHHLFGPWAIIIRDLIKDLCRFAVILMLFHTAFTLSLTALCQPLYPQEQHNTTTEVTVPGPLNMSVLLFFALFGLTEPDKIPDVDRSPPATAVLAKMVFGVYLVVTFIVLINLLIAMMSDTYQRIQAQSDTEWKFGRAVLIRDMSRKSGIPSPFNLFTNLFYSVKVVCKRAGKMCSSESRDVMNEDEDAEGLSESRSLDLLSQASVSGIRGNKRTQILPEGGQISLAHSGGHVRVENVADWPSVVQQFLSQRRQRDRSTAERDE
Photoreceptor-specific nuclear receptor, sequence (Q9Y5X4 whole entry): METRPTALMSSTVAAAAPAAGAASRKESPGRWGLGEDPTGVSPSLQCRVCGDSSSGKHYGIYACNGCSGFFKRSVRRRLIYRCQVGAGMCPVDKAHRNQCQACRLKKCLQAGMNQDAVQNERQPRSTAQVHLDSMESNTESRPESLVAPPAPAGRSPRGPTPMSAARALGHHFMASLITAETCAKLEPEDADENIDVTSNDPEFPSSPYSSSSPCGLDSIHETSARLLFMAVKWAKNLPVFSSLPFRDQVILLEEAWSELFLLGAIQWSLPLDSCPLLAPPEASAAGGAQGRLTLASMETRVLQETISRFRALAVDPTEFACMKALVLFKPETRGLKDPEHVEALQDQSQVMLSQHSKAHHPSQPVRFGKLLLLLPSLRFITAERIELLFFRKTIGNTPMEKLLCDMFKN

## CCn1c(=O)cc(OCC(=O)N(C)C2CCCCC2)c2ccccc21
[1]
  IC50: > 80 µM (inactive)

## Oc1cccc(-c2nc3ccc4ccccc4c3c3c2CCC3)c1
[2]
  IC50: 7.68 µM (active)
[3]
  EC50: 10 µM (active)
Streptokinase A
  EC50: 27.8 µM (active)
[4]
  CC50: > 40 µM (active)
[5]
  IC50: 5.22 µM (active)
Streptococcus
  EC50: 53.6 µM (active)

## O=C(Nc1ccc2oc(-c3ccccc3F)nc2c1)c1ccc2c(c1)OCCO2
[6]
  EC50: 31.1 µM (inactive)

## O=C(Cc1ccc(Cl)c(Cl)c1)Nc1ccccc1N1CCOCC1
Mucolipin-3
  EC50: 2.89 µM (active)
Ion channel NompC
  EC50: 13.4 µM (not active)

## O=C(C1=C(O)C(=O)N(CCN2CCOCC2)C1c1cccs1)c1cc2ccccc2o1 (stereo unspecified)
[7]
  IC50: > 39.8 µM (not active)
[8]
  IC50: 6.71 µM (active)

## COC(=O)c1ccc(CSc2nc3ccccc3c(=O)n2-c2ccccc2)o1
[2]
  IC50: 5.21 µM (active)
[5]
  IC50: 3.14 µM (active)
[9]
  IC50: 0.858 µM (active)
[10]
  EC50: > 53 µM (inactive)
[11]
  IC50: 13.6 µM (active)

## CCCCN(C)C(=O)c1nc2ccccn2c1CN1CCN(C/C=C/c2ccccc2)CC1
[12]
  IC50: > 43.8 µM (not active)
[13]
  IC50: 16.6 µM (not active)

## CCc1ccc(-c2nnn(CCC(=O)OC)n2)cc1
[14]
  EC50: 5.58 µM (active)
HT-1080
  EC50: > 50 µM (not active)
[1]
  IC50: > 80 µM (inactive)
HEK293
  AC50: 16.2 µM (active)

## CC(=O)Nc1ccc(NC(=O)C(C)OC(=O)/C(C#N)=C/c2ccc(N(C)C)cc2)cc1 (stereo unspecified)
[7]
  IC50: > 39.8 µM (not active)
[15]
  EC50: 26.9 µM (active)
[16]
  EC50: 86.3 µM (inconclusive)
[8]
  IC50: > 39.8 µM (not active)

## O=C(Nc1cccc(Cl)c1)c1cc(N=Nc2ccc([N+](=O)[O-])cc2Cl)ccc1O
[17]
  IC50: 1.34 µM (active)
Nonstructural protein 1
  IC50: 22.1 µM (active)

## Cc1ccc(N(C)S(=O)(=O)c2ccc(C)cc2)cc1
Mucolipin-3
  EC50: 5.1 µM (active)
Ion channel NompC
  EC50: > 29.9 µM (not active)

From ChEMBL document CHEMBL1201862, “PubChem BioAssay data set” (2004)
